# Assay results reported in paper PMC2112011 (The Journal of Cell Biology, 1982).
# Tested on: C3H cells
# Assay: Rodlet formation
# Assay type: cell-based, mouse
# Settings: 10-20 μM, 1 h
smiles,measurement,value
"CC1=C[C@@H]2/C=C(\C)CC[C@H](O)[C@H](O)/C=C/C(=O)[C@]23C(=O)N[C@@H](CC(C)C)[C@@H]3[C@@H]1C [AsD, Aspochalasin D]",Number of rodlets within a single cell,1-127
